Experiments:
Aspergillus flavus = test: Disk diffusion assay (MEC and zone of inhibition); format: cell-based; details: for ZOI (zone of inhibition of fungal growth calculated for each MEC): at the MEC; for ZOI (zone of inhibition of fungal growth calculated for each MEC) / MEC (minimum effective concentration): 24 hours of incubation; for MEC (minimum effective concentration): disk diffusion
Aspergillus fumigatus = test: Disk diffusion assay (MEC and zone of inhibition); format: cell-based; details: for ZOI (zone of inhibition of fungal growth calculated for each MEC): at the MEC; for ZOI (zone of inhibition of fungal growth calculated for each MEC) / MEC (minimum effective concentration): 24 hours of incubation; for MEC (minimum effective concentration): disk diffusion

Compound	antifungal activity in disk diffusion assay (Aspergillus flavus)	ZOI (zone of inhibition of fungal growth calculated for each MEC) (Aspergillus flavus)	MEC (minimum effective concentration) (Aspergillus flavus)	antifungal activity in disk diffusion assay (Aspergillus fumigatus)	ZOI (zone of inhibition of fungal growth calculated for each MEC) (Aspergillus fumigatus)	MEC (minimum effective concentration) (Aspergillus fumigatus)
OC(Cn1cncn1)(Cn1cncn1)c1ccc(F)cc1F [Fluconazole]	inactive	0 mm	0 µg/mL	inactive	0 mm	0 µg/mL
CC[C@H](C)C[C@H](C)CCCCCCCCC(=O)N[C@H]1C[C@@H](O)[C@@H](NCCN)NC(=O)[C@@H]2[C@@H](O)CCN2C(=O)[C@H]([C@H](O)CCN)NC(=O)[C@H]([C@H](O)[C@@H](O)c2ccc(O)cc2)NC(=O)[C@@H]2C[C@@H](O)CN2C(=O)[C@H]([C@@H](C)O)NC1=O [Casponfungin]		0.7 mm	2.5 µg/mL		0.7 mm	2.5 µg/mL
CCC(C)n1ncn(-c2ccc(N3CCN(c4ccc(OCC5COC(Cn6cncn6)(c6ccc(Cl)cc6Cl)O5)cc4)CC3)cc2)c1=O (centres unmarked) [Itraconazole]		1.7 mm	0.5 µg/mL		1.7 mm	1.0 µg/mL

Source: patent US7375088B2, “Polyene polyketides, processes for their production and their use as a pharmaceutical” (Thallion Pharmaceuticals Inc., priority 2003, dated 2008)
